Activity calls are given as the source filed them. No cut-off for these calls is given here. Where only a bound is given, the exact number is not on record here.

Data set [1] has as its system Caviid betaherpesvirus 2. Put plainly: Antiviral activity against Guinea pig cytomegalovirus strain 22122 infected guinea pig CCL158 cells assessed as plaque reduction measured after 10 days by plaque reduction assay. The format is functional, organism-based. As to conditions: Caviid betaherpesvirus 2, CCL158, 240 h.
Data set [2] in a line: Cytotoxicity against guinea pig CCL158 cells after 10 days by crystal violet staining. It counts as cell-based, Cavia porcellus.
Data set [3] can be described thus: Selectivity index, ratio of CC50 for guinea pig CCL158 cells to IC50 for Guinea pig cytomegalovirus strain 22122. It counts as functional.
Data set [4] deals with Caviid betaherpesvirus 2. The data set is described as follows: Antiviral activity against Guinea pig cytomegalovirus strain 22122 infected in second and third trimesters of pregnant Hartley guinea pig assessed as pregnancy outcome measured as live-born pups at 20 mg/kg, po once at 24 hrs post infection and once 7 days post infection. The format is functional.
Data set [5] concerns Caviid betaherpesvirus 2. Put plainly: Antiviral activity against Guinea pig cytomegalovirus strain 22122 infected in second and third trimesters of pregnant Hartley guinea pig assessed as reduction in dam blood viral log10 genome copies/ug of DNA at 20 mg/kg, po once at 24 hrs post infection and once at 7 days post infection (reference value: 3.22 +/- 0.2 log10 genome copies/ug DNA). The format is functional.

Data set [6] concerns Caviid betaherpesvirus 2. The data set is described as follows: Antiviral activity against Guinea pig cytomegalovirus strain 22122 infected in second and third trimesters of pregnant Hartley guinea pig assessed as reduction in viral DNA level in dam spleen at 20 mg/kg, po once at 24 hrs post infection and once at 7 days post infection relative to dam control. It counts as functional.

Data set [7] has as its system Caviid betaherpesvirus 2. The data set is described as follows: Antiviral activity against Guinea pig cytomegalovirus strain 22122 infected in second and third trimesters of pregnant Hartley guinea pig assessed as reduction in viral DNA level in dam liver at 20 mg/kg, po once at 24 hrs post infection and once at 7 days post infection relative to dam control. The format is functional.

In data set [8] the test system is Caviid betaherpesvirus 2. The data set is described as follows: Antiviral activity against Guinea pig cytomegalovirus strain 22122 infected in second and third trimesters of pregnant Hartley guinea pig assessed as reduction in viral DNA level in pup spleen at 20 mg/kg, po once at 24 hrs post infection and once at 7 days post infection relative to control pup. It counts as functional.

Data set [9] deals with Caviid betaherpesvirus 2. The data set is described as follows: Antiviral activity against Guinea pig cytomegalovirus strain 22122 infected in second and third trimesters of pregnant Hartley guinea pig assessed as reduction in viral DNA level in pup liver at 20 mg/kg, po once at 24 hrs post infection and once at 7 days post infection relative to control pup. The format is functional.

Data set [10] deals with Caviid betaherpesvirus 2. The data set is described as follows: Antiviral activity against Guinea pig cytomegalovirus strain 22122 infected in second and third trimesters of pregnant Hartley guinea pig assessed as pup spleen containing detectable viral DNA at 20 mg/kg, po once at 24 hrs post infection and once at 7 days post infection (reference value: 44%). It counts as functional.

Data set [11] relates to Caviid betaherpesvirus 2. The data set is described as follows: Antiviral activity against Guinea pig cytomegalovirus strain 22122 infected in second and third trimesters of pregnant Hartley guinea pig assessed as pup liver containing detectable viral DNA at 20 mg/kg, po once at 24 hrs post infection and once at 7 days post infection (reference value: 73%). It counts as functional.

The subject of data set [12] is Caviid betaherpesvirus 2. Put plainly: Antiviral activity against Guinea pig cytomegalovirus strain 22122 infected in second and third trimesters of pregnant Hartley guinea pig assessed as increase in pup survival at 20 mg/kg, po once at 24 hrs post infection and once at 7 days post infection. Details: dose 20 mg/kg. The format is functional, organism-based. The conditions noted are these: Guinea pig cytomegalovirus (strain 22122 / ATCC VR682) (GPCMV).

Data set [13] deals with Caviid betaherpesvirus 2. The data set is described as follows: Antiviral activity against Guinea pig cytomegalovirus strain 22122 infected in second and third trimesters of pregnant Hartley guinea pig assessed as reduction in pups with detectable viral DNA at 20 mg/kg, po once at 24 hrs post infection and once at 7 days post infection. It counts as functional, organism-based. The arrangement: dose 20 mg/kg. As to conditions: Guinea pig cytomegalovirus (strain 22122 / ATCC VR682) (GPCMV).

Data set [14] relates to Caviid betaherpesvirus 2. Put plainly: Antiviral activity against Guinea pig cytomegalovirus strain 22122 infected in second and third trimesters of pregnant Hartley guinea pig assessed as pregnancy outcome measured as live-born pups at 4 mg/kg, po treatment started at 24 hrs post infection for 5 consecutive days (reference value: 62.5%). It counts as functional.
The test system of data set [15] is Cavia porcellus. Put plainly: Toxicity in Guinea pig cytomegalovirus strain 22122 infected second and third trimesters of pregnant Hartley guinea pig assessed as decreased animal activity at 20 mg/kg, po once at 24 hrs post infection and once 7 days post infection. The format is organism-based. The arrangement: dose 20 mg/kg, route oral. As to conditions: in vivo.

Data set [16] relates to Cavia porcellus. Put plainly: Toxicity in Guinea pig cytomegalovirus strain 22122 infected second and third trimesters of pregnant Hartley guinea pig assessed as animal weight loss at 20 mg/kg, po once at 24 hrs post infection and once 7 days post infection. The format is organism-based. The arrangement: dose 20 mg/kg, route oral. The conditions noted are these: in vivo.

Data set [17] concerns Cavia porcellus. The data set is described as follows: Toxicity in Guinea pig cytomegalovirus strain 22122 infected second and third trimesters of pregnant Hartley guinea pig assessed as decreased animal activity at 4 mg/kg, po treatment started at 24 hrs post infection for 5 consecutive days. It counts as organism-based. The arrangement: dose 4 mg/kg, route oral. The conditions noted are these: in vivo.

Data set [18] relates to Cavia porcellus. The data set is described as follows: Toxicity in Guinea pig cytomegalovirus strain 22122 infected second and third trimesters of pregnant Hartley guinea pig assessed as animal weight loss at 4 mg/kg, po treatment started at 24 hrs post infection for 5 consecutive days. The format is organism-based. Details: dose 4 mg/kg, route oral. As to conditions: in vivo.

The subject of data set [19] is Cavia porcellus. The data set is described as follows: Toxicity in Guinea pig cytomegalovirus strain 22122 infected second and third trimesters of pregnant Hartley guinea pig assessed as low birth weight pups at 20 mg/kg, po once at 24 hrs post infection and once 7 days post infection (reference value: 107 +/- 10 g). The format is organism-based. The arrangement: dose 20 mg/kg, route oral. The conditions noted are these: in vivo.

Data set [20] concerns Cavia porcellus. Put plainly: Toxicity in Guinea pig cytomegalovirus strain 22122 infected second and third trimesters of pregnant Hartley guinea pig assessed as low birth weight pups at 4 mg/kg, po treatment started at 24 hrs post infection for 5 consecutive days (reference value: 107 +/- 10 g). As to conditions: in vivo. The format is organism-based. The arrangement: dose 4 mg/kg, route oral.

The subject of data set [21] is Cavia porcellus. Put plainly: Toxicity in Guinea pig cytomegalovirus strain 22122 infected second and third trimesters of pregnant Hartley guinea pig assessed as adverse effect on complete blood count at 4 mg/kg, po treatment started at 24 hrs post infection for 9 consecutive days. The conditions noted are these: in vivo. Details: dose 4 mg/kg, route oral. The format is organism-based.

In data set [22] the test system is Cavia porcellus. The data set is described as follows: Toxicity in Guinea pig cytomegalovirus strain 22122 infected second and third trimesters of pregnant Hartley guinea pig assessed as adverse effect on complete blood count in new born pups at 4 mg/kg, po treatment started at 24 hrs post infection for 9 consecutive days. The format is organism-based. The arrangement: dose 4 mg/kg, route oral. The conditions noted are these: in vivo.

As for `CCCCCCCCCCCCCCCCOCCCOP(=O)(O)CO[C@H](CO)Cn1ccc(N)nc1=O` [BRINCIDOFOVIR], in the data set with Caviid betaherpesvirus 2 [1], the concentration for a half-maximal effect (EC50) came out at 4 nM. In addition, the CC50 at 240 h in [2] is more than 100000 nM. The “Selectivity Index” value in data set [3] is listed as more than 25000. Besides, the Activity is on record as 93.8% in the data set with Caviid betaherpesvirus 2 [4]; 2.88 in the data set on Caviid betaherpesvirus 2 [5]; 25% in the data set on Caviid betaherpesvirus 2 [10]; 57% in the data set with Caviid betaherpesvirus 2 [11]; 100% with Caviid betaherpesvirus 2 [14]; “Non-toxic” in the data set with Cavia porcellus [15]. The Activity result in the data set with Cavia porcellus [16] is “Non-toxic”; with Cavia porcellus [17], “Non-toxic”; in the data set with Cavia porcellus [18], “Non-toxic”; with Cavia porcellus [19], 103 g; in the data set with Cavia porcellus [20], 103 g; with Cavia porcellus [21], “Non-toxic”. In addition, the Activity result with Cavia porcellus [22] is “Non-toxic”. For the same compound, the “fold change (FC)” value came out at 5 with Caviid betaherpesvirus 2 [6], 6.5 in the data set on Caviid betaherpesvirus 2 [7], 6 in the data set with Caviid betaherpesvirus 2 [8] and 10.5 in the data set with Caviid betaherpesvirus 2 [9]. Besides, the outcome in the data set on Caviid betaherpesvirus 2 [12] and in the data set on Caviid betaherpesvirus 2 [13] was Active.

(Values after ChEMBL document CHEMBL1687836, “Oral hexadecyloxypropyl-cidofovir therapy in pregnant guinea pigs improves outcome in the congenital model of cytomegalovirus infection” (Antimicrob Agents Chemother, 2011).)
